“Also recorded” adds a separate entry of the source.
Tests used:
[1] = tested on: Musca domestica L.; experiment: Contact test on non-porous tile, Musca domestica; format: in vivo; details: for synergizing effect on Azamethiphos / synergizing effect on Cypermethrin / synergizing effect on Spinosad: Musca domestica L.; for synergizing effect on Azamethiphos: synergist applied with Azamethiphos; for synergizing effect on Cypermethrin: synergist applied with Cypermethrin; for synergizing effect on Spinosad: synergist applied with Spinosad; for mortality at 680 µg/mL: 0.68 mg/ml
[2] = tested on: Blattella germanica; experiment: Contact test on non-porous tile, Blattella germanica; format: in vivo; details: Blattella germanica; synergist applied with Imidacloprid
Experimental: 1 ml of Composition 36 was distributed on the tile. […] 1 ml of Composition 37 was distributed on a tile.

[3] = Musca domestica, single substance alone, 48 h, read-out: Mortality %/time (h)

Molecule | synergizing effect on Azamethiphos [1] | synergizing effect on Cypermethrin [1] | synergizing effect on Spinosad [1] | mortality at 150 µg/mL ([1]; Musca domestica, single substance alone, 0.15 mg/ml, 48 h, read-out: Mortality %/time (h)) | mortality at 510 µg/mL ([1]; Musca domestica, single substance alone, 0.51 mg/ml, 48 h, read-out: Mortality %/time (h)) | mortality at 680 µg/mL [1, 3] | mortality at 1020 µg/mL ([1]; Musca domestica, single substance alone, 1.02 mg/ml, 48 h, read-out: Mortality %/time (h)) | mortality at 33000 µg/mL ([1]; Musca domestica, single substance alone, 33.00 mg/ml, 48 h, read-out: Mortality %/time (h)) | synergizing effect on Imidacloprid [2] | Mortality %/time (h) ([1]; single substance alone, 0.15 mg/ml, 48 h) | Mortality %/time (h) ([1]; single substance alone, 0.51 mg/ml, 48 h) | Mortality %/time (h) ([1]; single substance alone, 0.88 mg/ml, 48 h) | Mortality %/time (h) ([1]; single substance alone, 28.53 mg/ml, 48 h)
CCCCCCCC/C=C\CCCCCCCCOC(C)=O [Oleyl acetate] | high synergizing effect | high synergizing effect | fine synergizing effect | 0% | 0% | 60% | 0% | 18% | – | – | – | – | –
CCCCCCCCOC(=O)OCCCCCCCC [dioctyl carbonate] | excellent synergizing effect | high synergizing effect | fine synergizing effect | – | – | 33% | – | – | – | – | – | – | –
Oleic alcohol [Oleic alcohol 95%] | high synergizing effect | synergistic effect, comparable to the activity shown by PBO; also recorded: good synergizing effect | – | – | – | – | – | – | fine synergizing effect | 1/48 ^ % | 5/48 ^ % | 8/48 ^ % | 18/48 ^ %

From US20260215418A1, “HYDROCARBON ALCOHOLS AND THEIR DERIVATIVES AS SYNERGISTS IN PESTICIDE ACTIVITY” (priority 2022, published 2026)
